According to PMC3813957 (Cancer prevention research (Philadelphia, Pa.), 2013):
Read-outs that look alike come from different tables or passages of the source.

Key:
[1] = system: MNU-induced rat mammary cancers; conditions: varied doses; cited from earlier work
[2] = system: methylnitrosourea-induced mammary cancers; assay: Prevention of methylnitrosourea-induced mammary carcinogenesis; type: in vivo, female Sprague-Dawley rats; conditions: for reduction of final tumor multiplicity: 6 mg/kg BW
[3] = system: established mammary cancers induced by methylnitrosourea; assay: Therapy of established; type: in vivo, female Sprague-Dawley rats; conditions: for reduction of average tumor size: vehicle group increased 250%
[4] = system: phosphorylated ERKs (T202/Y204); assay: Biomarker study: Western blot of phosphorylated ERK in mammary cancers; type: in vivo, female Sprague-Dawley rats
[5] = human, 150 mg, steady state; cited from earlier work
[6] = cited from earlier work
[7] = system: brain metastases; conditions: nine patients, median dose 1500 mg weekly; cited from earlier work
[8] = system: transgenic model of ER negative breast cancer; conditions: ref Lubet and Grubbs, unpublished data; cited from earlier work
[9] = system: carcinogen-induced urinary bladder model; conditions: ref Lubet and Grubbs, unpublished data; cited from earlier work
[10] = Serum pharmacokinetics of erlotinib and OSI-420 after gavage; conditions: for concentration at 2 h / concentration at 4 h / concentration at 8 h / concentration at 24 h / concentration at 48 h / half-life / AUC(0-t) / Cmax / Tmax: female, Sprague-Dawley, rat, serum
[11] = Experiment C, weekly dosing at either 42 or 21 mg/kg BW
[12] = rat 42 mg/kg BW vs human 150 mg
[13] = rat effective daily dose (6 mg/kg BW) vs human

## COc1cc2ncnc(Nc3ccc(F)c(Cl)c3)c2cc1OCCCN1CCOCC1 [gefitinib]
[1]
  tumor multiplicity: dose dependent decrease

## C#Cc1cccc(Nc2ncnc3cc(OCCOC)c(OCCOC)cc23)c1 [Erlotinib]
[2]; Experiment A, 6 mg/kg BW daily, one day on/one day off, or two days on/two days off, all three regimens vs controls P<.01
  tumor incidence and latency: reductions of tumor incidence and increases in latency
[2]; Experiment A, 2 days on/2 days off, vs vehicle controls P<.001
  reduction of final tumor multiplicity: 75%
[2]; Experiment A, intermittent dosing (both schedules)
  reduction of final tumor multiplicity: 65–75%
[2]; Experiment B, 6 mg/kg BW daily, 6 mg/kg BW two days on/two days off, or 42 mg/kg BW weekly, all three vs controls P<.01
  tumor incidence and latency: reduced tumor incidence and increased tumor latency
[2]; Experiment B, 6 mg/kg BW daily, vs controls P<.005
  reduction of tumor multiplicity: 85%
[2]; [11]
  tumor incidence: strongly inhibited
  tumor multiplicity: strongly inhibited
[2]; initial studies, 6 mg/Kg BW/day, data not shown
  preventive activity (tumor incidence and multiplicity): highly effective
[2]; initial studies, various daily doses up to 6 mg/kg BW/day
  tumor incidence and multiplicity: dose dependent decrease
[2]; lower weekly dose 21 mg/kg BW
  decrease of tumor multiplicity: approximately 85%
[3]; 6 mg/kg BW daily for 6 weeks
  reduction of average tumor size: 40%
[3]; 42 mg/kg BW weekly for 6 weeks
  reduction of average tumor size: 25%
[3]; either daily (6 mg/kg BW) or weekly (42 mg/kg BW) dosing, 6 weeks
  share of mammary tumors that decreased by 60% in size: at least 50%
[4]; 6 mg/kg BW/day daily for 7 days
  phosphorylation of ERK in cancers (Western blot): striking decrease
[4]; rats treated daily/weekly (abstract)
  levels of phosphorylated ERK: strongly decreased
[4]; single weekly dose 42 mg/kg BW, examined 6 days following the treatment
  phosphorylated ERK in cancers (Western blot): strong decrease
[5]
  AUC0–24: 26500 ng·h/mL
  Cmax: 1740 ng/mL
  Tmax: 2.44 h
[6]; 2000 mg/week
  patients with moderate (grade 2) rash: 42%
[6]; weekly dosing, doses up to 2000 mg/week, any dose level
  severe (grade 3) rash or diarrhea: no severe (grade 3) rash or diarrhea
[7]
  efficacy: significant efficacy was observed
[8]
  efficacy of weekly treatment: strong efficacy
[9]
  efficacy of weekly treatment: strong efficacy
[10]; oral, 6 mg/kg BW/day
  concentration at 2 h: 708 ± 48 ng/mL
  concentration at 4 h: 427 ± 19 ng/mL
  concentration at 8 h: 277 ± 102 ng/mL
  concentration at 24 h: 25 ± 9 ng/mL
  concentration at 48 h: 0 ng/mL
[10]; oral, 6 mg/kg BW/day, half-life, daily erlotinib (discussion)
  half-life: 5 to 6 h
[10]; oral, 42 mg/kg BW
  concentration at 2 h: 1350 ± 96 ng/mL
  concentration at 4 h: 1060 ± 184 ng/mL
  concentration at 8 h: 1590 ± 259 ng/mL
  concentration at 24 h: 470 ± 121 ng/mL
  concentration at 48 h: 52 ± 11 ng/mL
[10]; oral, serum half-life
  half-life: ≤ 8 h
[10]; po, 6 mg/kg
  AUC(0-t): 4680 ng·h/mL
  Cmax: 708 ng/mL
  Tmax: 2 h
[10]; po, 6 mg/kg, T1/2, rat, non-compartmental
  half-life: 4.61 h
[10]; po, 42 mg/kg
  AUC(0-t): 28400 ng·h/mL
  Cmax: 1590 ng/mL
  Tmax: 8 h
[10]; po, 42 mg/kg, T1/2, rat, non-compartmental
  half-life: 8.06 h
[10]; rat 6 mg/Kg BW vs human 150 mg
  AUC relative to the human dose: < 20%
  Cmax relative to human levels: < 50%
[10]; [12]
  AUC compared with the human: similar
  Cmax compared with that achieved in humans: similar
[10]; [13]
  AUC less than in the human: 5 ×
  Cmax lower than in the human: approximately 60%
